Experiment [1] has as its target T1, human PTHR, G protein-coupled conformation (RG) (Homo sapiens, UniProt Q03431).
T1 construct: expressed in transfected cells; host or cells: COS-7, transient (Fugene-6); membranes
T1 sequence (Q03431 27-593): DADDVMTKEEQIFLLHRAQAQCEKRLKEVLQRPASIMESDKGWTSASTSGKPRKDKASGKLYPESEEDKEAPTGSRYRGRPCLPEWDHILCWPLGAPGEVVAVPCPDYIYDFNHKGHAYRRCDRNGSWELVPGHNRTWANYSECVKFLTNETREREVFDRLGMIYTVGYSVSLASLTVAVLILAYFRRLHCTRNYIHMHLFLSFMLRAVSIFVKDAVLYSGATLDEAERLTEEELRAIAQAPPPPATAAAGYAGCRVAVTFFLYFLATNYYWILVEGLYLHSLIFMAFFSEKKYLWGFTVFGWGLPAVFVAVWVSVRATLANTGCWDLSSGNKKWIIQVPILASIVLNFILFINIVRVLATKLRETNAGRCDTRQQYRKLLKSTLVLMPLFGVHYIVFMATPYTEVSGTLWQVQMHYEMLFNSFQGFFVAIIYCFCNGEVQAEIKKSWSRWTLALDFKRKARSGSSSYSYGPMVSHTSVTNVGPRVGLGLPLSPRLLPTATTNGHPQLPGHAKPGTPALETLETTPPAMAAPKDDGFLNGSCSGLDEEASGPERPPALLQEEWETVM
As to the kind of experiment: Competition binding to RG conformation of hPTHR (COS-7 membranes, GαsND, 125I-[Aib1,3,M]PTH(1-15) tracer).

Experiment [2] relates to MC3T3-E1 cells. Put plainly: cAMP in MC3T3-E1 cells, dose-response. Format: cell-based. The method, then:
In the 1-30 scaffold, Gly, Ser, Leu, Asn, Gln, Trp, Glu, and Lys were substituted at position 29; Gly, Ser, Leu, Asn, Asp, Trp, and Lys were substituted at position 30; and Ser, Leu, Asn, Val, Trp, Glu, and Lys were substituted at position 31. […] These peptides were tested for cAMP activity in MC3T3-E1 cells.

A short description of experiment [3]: Bone structural parameters after two-week daily treatment in mice (Piximus, microCT). Format: in vivo. On the procedure: FIG. 31 is a set of images showing the effects of two-week daily treatment of R^0 and RG ligands on trabecular and cortical bone structure in mice. Mice (C57BL/6, males, 3 months) were treated (i.v.) with either vehicle, rPTH(1-34) (SEQ ID NO:130), M-PTH(1-34) (SEQ ID NO:12), or E^18,A^22,L^25,K^26 (EALK)PTHrP(1-30) (SEQ ID NO:90) (5 nmol/kg; n=7 group), daily for 14 days, and femurs were analyzed by μCT.
As described above, mice were treated intravenously) with either vehicle, rPTH(1-34), M-PTH(1-34), or EALK-PTHrP(1-30) daily for 14 days.

Experiment [4] has as its target T2, human PTHR, G protein-uncoupled conformation (R^0) (Homo sapiens, UniProt Q03431).
T2 construct: expressed in transfected cells; host or cells: COS-7, transient (Fugene-6)
T2 sequence (Q03431 27-593): T1 sequence (Q03431 27-593)
As to the kind of experiment: Competition binding to R0 conformation of hPTHR (COS-7 membranes, GTPγS, 125I-PTH(1-34) tracer). Summed up: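 Bound versus free radioligand was separated by vacuum filtration after 90 min incubation of COS-7 hPTHR membranes (20-100 μg/mL) with tracer and competing peptides. Non-specific binding came from a saturating unlabeled analog.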

Experiment [5] is described as follows: Blood ionized calcium in C57BL/6 mice after intravenous injection. Format: in vivo. The note with it: 5 nmol/kg i.v. On the procedure: FIGS. 29A and 29B are graphs showing the effect of R^0 and RG selective PTH analogs on plasma cAMP and calcium in mice. FIGS. 29A and 29B show plasma cAMP concentrations in mice (C57BL/6, males, 3 months) that were administered either vehicle, rPTH(1-34) (SEQ ID NO:130), M-PTH(1-34) (M=A^1,Aib^3,Q^10,Har^11,A^12,W^14,R^19) (SEQ ID NO:12), or E^18,A^22,L^25,K^26-(EALK)-PTHrP(1-30) (SEQ ID NO:90) (5 nmol/kg; n=7 for cAMP, n=4 for calcium) intravenously. […] In the calcium experiment, blood was withdrawn before, and 1, 2, 4 and 6 hours after injection, and ionized calcium was measured using a Ca^++/pH analyzer.
We also characterized the effects of the EALK-PTHrP(1-30) peptide on cAMP production. Three month old male C57BL/6 mice were intravenously injected with either vehicle, rPTH(1-34), M-PTH(1-34) (M=A^1,Aib^3,Q^10,Har^11,A^12,W^14,R^19) or E^18,A^22,L^25,K^26-(EALK)-PTHrP(1-30) (5 nmol/kg). In the cAMP experiment (FIG. 29A), blood was withdrawn 10 minutes after injection and plasma level of cAMP was measured by RIA. In the calcium experiment (FIG. 29B), blood was withdrawn prior to injection and 1, 2, 4, and 6 hours after injection. Ionized calcium was measured using a Ca^++/pH analyzer.

Experiment [6] concerns SaOS cells. As to the kind of experiment: cAMP production in SaOS cells, dose-response. Format: cell-based. The conditions noted are these: Table 2; read-out: SaOS camp EC50.
Experiment [7] can be described thus: Bone turnover markers (PINP, osteocalcin, CTX) in mice, daily treatment. Format: in vivo. The conditions noted are these: 5 nmol/kg i.v. daily, days 6 and 13. The method, then: FIGS. 30A-30F are graphs showing the effects of PTH analogs on plasma bone markers in mice. Mice (C57BL/6, males, 3 months) were intravenously injected daily with either vehicle, rPTH(1-34) (SEQ ID NO:130), M-PTH(1-34) (SEQ ID NO:12), or (EALK)-PTHrP(1-30) (SEQ ID NO:90) (5 nmol/kg; n=7 group) for 14 days. Markers of bone turnover (PINP, CTX and osteocalcin) were assessed by ELISA in blood at day 6 (FIGS. 30A, 30C, and 30E, respectively) and 13 (FIGS. 30B, 30D, and 30F, respectively).
A second set of experiments was performed in which mice received 5 nmol/kg intravenous daily treatment with rPTH(1-34), M-PTH(1-34), or EALK-PTHrP(1-30) for 14 days. Blood samples were taken at days 6 and 13, and markers of bone turnover (PINP, osteocalcin and CTX) were assessed by ELISA.

The nature of experiment [8]: Calcemic action in normal rats (blood ionized calcium). Format: in vivo. The conditions noted are these: normal and TPTX rats. Summed up: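 Corrected (pH 7.4) blood ionized calcium tracked from tail-vein samples before and 1, 2, 4 or 6 h after dosing. Peptides diluted in phosphate-citrate/NaCl/Tween 80 buffer, pH 5.0, given i.v. at 1 ml/kg to groups of six 8-week-old female SD-IGS rats; means ± SE versus vehicle.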

[9] abbreviates: Piximus, mice, 5 nmol/kg i.v. daily 14 days.
Setting [10] is: mice, 5 nmol/kg i.v. daily 14 days.

Read-outs that look alike come from different tables or passages of the source. Square brackets hold non-standard residues; d marks the D form. Ends that are not written are not given here. Peptide text beside a SMILES is read from it. hArg = N=C(N)NCCCC[C@H](N)C(=O)O; Aib = CC(C)(N)C(=O)O

What is called IC50 is the midpoint of a concentration-inhibition curve. For orientation: EC50 means the concentration at which the effect is half-maximal. On to `CC[C@H](C)[C@H](NC(=O)[C@H](CC(C)C)NC(=O)[C@H](CCCCN)NC(=O)[C@H](CC(C)C)NC(=O)[C@H](CC(C)C)NC(=O)[C@H](Cc1ccccc1)NC(=O)[C@H](C)NC(=O)[C@H](CCCNC(=N)N)NC(=O)[C@H](CCCNC(=N)N)NC(=O)[C@H](CCCNC(=N)N)NC(=O)[C@H](CCC(=O)O)NC(=O)[C@H](CC(=O)O)NC(=O)[C@H](CCC(N)=O)NC(=O)[C@@H](NC(=O)[C@H](CO)NC(=O)[C@H](CCCCN)NC(=O)CNC(=O)[C@H](CCCCN)NC(=O)[C@H](CC(=O)O)NC(=O)[C@H](Cc1c[nH]cn1)NC(=O)[C@H](CC(C)C)NC(=O)[C@H](CC(C)C)NC(=O)[C@H](CCC(N)=O)NC(=O)[C@H](Cc1c[nH]cn1)NC(=O)[C@H](CCC(=O)O)NC(=O)[C@H](CO)NC(=O)[C@@H](NC(=O)[C@H](C)N)C(C)C)[C@@H](C)CC)C(=O)N[C@@H](C)C(=O)N[C@@H](CCC(=O)O)C(N)=O` [E18, A22, L25, K26-PTHrP(1-30)NH, E18,A22,L25,K26-PTHrP(1-30)] (H-AVSEHQLLHDKGKSIQDERRRAFLLKLIAE-NH2; N-terminus assumed), for which the IC50 in experiment [1] (Table 2, read-out: RG binding affinity hPTHR IC50) stood at 0.08 nM. The IC50 in experiment [1] (Table 4, human PTH1 receptor, read-out: RG binding IC50) was determined as 0.08 nM. Besides, in experiment [2] (Table 2, read-out: MC3T3-E1 cAMP EC50), the EC50 stood at 0.059 nM. For the same molecule, in experiment [2] (Table 3, read-out: dose-response cAMP in MC3T3-E1 (EC50)), the EC50 came out at 0.059 nM. Moreover, in experiment [3] (setting [9]), the “Lumbar Spine BMD” value is listed as 0.0464 ± 0.0002 g/cm^2 and the “Total Femur BMD” value is on record as 0.620 ± 0.0003 g/cm^2. Further, the “effect on trabecular/cortical bone and BMD, in words” value in experiment [3] (setting [10]) is reported as “increased cortical bone thickness with significance in the distal femur”. Further, in experiment [3] (microCT distal femur), the Conn-Dens. is recorded as 117 ± 9 1/mm^3, the “Cort Th.” value turned out to be 238 ± 9 μm, the “Tb · N” value is recorded as 4.13 ± 0.16 1/mm and the “Tb · Th” value is given as 57.8 ± 2.1 μm. Besides, in experiment [3] (microCT distal femur), the TbSp is listed as 238 ± 10 μm and the TrabecularBV/TV is on record as 16.5 ± 1.3%. For the same molecule, in experiment [3] (microCT mid femur), the BA amounted to 0.821 ± 0.027 mm^2, the BA/TA is on record as 40.3 ± 0.6%, the “Cort Th.” value was 176 ± 4 μm and the MA was 1.21 ± 0.03 mm^2. Moreover, the TA in experiment [3] (microCT mid femur) is 2.03 ± 0.06 mm^2. Further, the R0/RG selectivity in experiment [4] (Table 2, hPTHR) is 11169. Also, the IC50 in experiment [4] (Table 4, human PTH1 receptor, read-out: R0 binding IC50) worked out at 945 nM. Further, in experiment [4] (human PTH receptor on COS-7 cell membranes), the R0/RG ratio came out at 11813. In addition, the “ionized calcium response, in words” value in experiment [5] is listed as “similar, if not lower, than that of PTH(1-34)”. The half-maximal effective concentration (EC50) in experiment [6] came to 0.063 nM. The “effect on bone turnover markers, in words” value in experiment [7] is given as “increased bone formation markers, with relatively smaller effects on the resorption marker”.
Take “Ala^1,Aib^3-[M]PTH(1-34) (AV[Aib]EIQLMHQ[hArg]AKWLNSMRRVEWLRKKLQDVHNF) [M-PTH(1-34), M=A1,Aib3,Q10,Har11,A12,W14,R19]”: in experiment [3] (setting [9]), the “Lumbar Spine BMD” value is given as 0.0524 ± 0.0002 g/cm^2. Further, the “effect on trabecular/cortical bone and BMD, in words” value in experiment [3] (setting [10]) is “robustly increased trabecular bone, but also detectably diminished cortical bone”. Moreover, in experiment [3] (microCT distal femur), the Conn-Dens. is on record as 263 ± 25 1/mm^3, the “Cort Th.” value is 166 ± 6 μm, the “Tb · N” value is on record as 5.22 ± 0.34 1/mm and the “Tb · Th” value worked out at 71.5 ± 1.8 μm. In experiment [3] (microCT distal femur), this molecule displayed a TbSp of 208 ± 17 μm and a TrabecularBV/TV of 35.0 ± 3.0%. In addition, in experiment [3] (microCT mid femur), the BA is recorded as 0.837 ± 0.022 mm^2, the BA/TA is listed as 40.0 ± 0.8%, the “Cort Th.” value came out at 151 ± 3 μm and the MA is 1.26 ± 0.04 mm^2. The TA in experiment [3] (microCT mid femur) is reported as 2.10 ± 0.06 mm^2. For the same molecule, the “ionized calcium response, in words” value in experiment [5] was “markedly more robust and more sustained than that of PTH(1-34)”. In experiment [7], the “effect on bone turnover markers, in words” value is “strongly induced increases in markers of both bone formation”. Further, in experiment [8], the “calcemic action compared with control peptides, in words” value is recorded as “higher calcemic actions than did PTH(1-34)”.
